# Reference: US20190175601A1, “COMPOSITION FOR INHIBITING OR ALLEVIATING ITCHING INCLUDING RIBOFLAVIN” (INDUSTRY-UNIVERSITY COOPERATION FOUNDATION HANYANG …, priority 2016, published 2019)
# Key:
# TRPV1 = molecular target: T1, TRPV1 (Homo sapiens, UniProt Q8NER1); experiment: Capsaicin current blocking in TRPV1-expressing HEK293 cells; format: cell-based; details: TRPV1-expressing HEK 293 cells
# T1 construct: expressed in transfected cells; host or cells: HEK 293 cells
# Source text: TRPV1 was expressed in HEK 293 cells to carry out a capsaicin current blocking experiment. Under these conditions, riboflavin excluded other channels and a direct effect of riboflavin was examined. The results are illustrated in FIG. 5. FIG. 5 illustrates results of confirming that a capsaicin-induced current was inhibited by riboflavin.
# [1] = tested on: histamine-induced itching; experiment: Histamine-induced itching animal behavioral test, local intradermal injection co-administered with histamine; format: in vivo, male C57BL/6 mice; details: 1 μM/50 μl intradermal, at the same time as histamine 100 μg/site; FIG. 2
# Description: An effect of inhibiting or alleviating itching was tested using the local intradermal injection prepared according to Preparation Example 1.
# The test was carried out in the same manner as in Experimental Example 1, except for the following. For the itching-induced animal behavioral model test, 1 μM/50 μl of the local intradermal injection prepared according to Preparation Example 1 was injected intradermally into the back of the neck of each mouse. In addition, upon administration of the preparation, 50 μl (100 μg/site) of histamine was injected intradermally at the same time.
# [2] = tested on: skin-afferent nerve tissue; experiment: Histamine-induced peripheral nerve activity in preserved skin-afferent nerve tissue; details: histamine administered to the sole of the foot; FIG. 3
# Description: Histamine-induced itching is known to occur through peripheral nerve excitation. In the present experimental example, it was examined whether histamine-induced peripheral nerve activity was blocked by riboflavin.
# After securing preserved skin-afferent nerve tissue, histamine was administered to the sole of the foot to confirm nerve activity, and such histamine-induced nerve activity was blocked by riboflavin (see FIG. 3).
# [3] = tested on: histamine-induced itching; experiment: Histamine-induced itching animal behavioral test, preparations for oral administration; format: in vivo, male C57BL/6 mice; details: FIG. 1
# Description: An effect of inhibiting or alleviating itching was tested using the preparations for oral administration prepared according to Preparation Example 1. For the test, an animal behavioral test was performed using the mouse model disclosed in Non-Patent Document 6.
# Groups each including 10 male C57BL/6 mice weighing 20 g to 23 g were used in the test. These groups were accommodated under control of a temperature of 23° C. to 25° C. The mice were freely fed food and water. For the itching-induced animal behavioral model test, the mice were orally administered the preparations for oral administration having different concentrations of riboflavin, which were prepared according to Preparation Example 1 (100 mg/kg, 300 mg/kg, or 600 mg/kg). In addition, the mice were treated with the control prepared according to Preparation Example 1.
# To induce scratching, histamine, which is known to cause an itching sensation in humans, was used. At this time, histamine was dissolved in sterile physiological saline. 30 minutes after administration of the preparations for oral administration, 50 μl (500 μg/site) of histamine was injected intradermally into the back of the neck of each mouse.
# The results were analyzed by calculating the mean and standard deviation, and a statistical difference of mean values was determined using a Student's t-test.
# [4] = tested on: spinal cord dorsal root ganglion cells; experiment: Histamine-induced current, membrane voltage clamp method; format: cell-based; details: primary cultured mouse dorsal root ganglion cells, FIG. 4
# Description: In addition, to confirm an effect of riboflavin on blocking histamine-induced peripheral nerve activity, it was examined using a membrane voltage clamp method whether a histamine-induced current was inhibited by riboflavin.
# To this end, spinal cord dorsal root ganglion cells of each mouse were isolated and primarily cultured, and then electrophysiological characteristics of the spinal cord dorsal root ganglion cells were recorded using the membrane voltage clamp method.
# [5] = tested on: histamine-induced itching; experiment: Histamine-induced itching animal behavioral test, preparation for transdermal administration; format: in vivo, male C57BL/6 mice
# Description: An effect of inhibiting or alleviating itching was tested using the preparation for transdermal administration prepared according to Preparation Example 2. For the test, an animal behavioral experiment was carried out in the same manner as in Experimental Example 1.
# In particular, 30 minutes before 100 μg/50 μl of histamine was injected, the preparation for transdermal administration was applied on the skin, and then the preparation was removed 5 minutes before histamine was injected.
# T1 sequence (Q8NER1 whole entry, species assumed): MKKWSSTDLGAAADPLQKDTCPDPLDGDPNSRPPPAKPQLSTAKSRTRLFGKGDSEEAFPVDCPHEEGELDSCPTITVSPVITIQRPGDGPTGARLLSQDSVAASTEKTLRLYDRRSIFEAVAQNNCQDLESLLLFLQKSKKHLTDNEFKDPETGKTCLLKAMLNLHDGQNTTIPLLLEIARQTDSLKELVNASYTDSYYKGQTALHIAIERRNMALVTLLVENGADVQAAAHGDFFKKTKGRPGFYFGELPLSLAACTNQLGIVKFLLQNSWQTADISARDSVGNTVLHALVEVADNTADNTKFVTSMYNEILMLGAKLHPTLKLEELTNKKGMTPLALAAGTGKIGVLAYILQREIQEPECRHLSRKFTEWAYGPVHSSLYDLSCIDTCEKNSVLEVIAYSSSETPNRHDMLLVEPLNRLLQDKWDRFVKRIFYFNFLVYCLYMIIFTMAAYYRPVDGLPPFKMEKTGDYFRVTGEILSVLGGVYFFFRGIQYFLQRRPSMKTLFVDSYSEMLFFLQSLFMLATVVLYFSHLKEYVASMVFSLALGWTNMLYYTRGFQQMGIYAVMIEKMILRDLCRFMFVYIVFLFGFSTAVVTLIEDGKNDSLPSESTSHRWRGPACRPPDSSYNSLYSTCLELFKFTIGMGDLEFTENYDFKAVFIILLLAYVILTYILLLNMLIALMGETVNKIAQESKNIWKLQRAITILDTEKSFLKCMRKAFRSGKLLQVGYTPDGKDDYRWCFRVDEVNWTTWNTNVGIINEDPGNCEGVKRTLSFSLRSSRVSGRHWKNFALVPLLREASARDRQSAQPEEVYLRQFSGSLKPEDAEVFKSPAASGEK
capsaicin-induced current blocking effect at 100 nM (TRPV1; 100 nM),Compound,"capsaicin-induced current blocking effect (TRPV1; several concentrations, FIG. 5)",histamine-induced itching responses (number of scratches) [1],histamine-induced nerve activity [2],"dose dependence of effect on inhibiting histamine-induced itching ([3]; oral 100, 300, 600 mg/kg)","histamine-induced itching responses (number of scratches) ([3]; oral 100, 300 or 600 mg/kg, 30 minutes before histamine 500 μg/site intradermal, observed 30 minutes)",histamine-induced inward current [4],"histamine-induced itching responses ([5]; 1 mM in Vaseline cream on skin 30 minutes before histamine 100 μg/50 μl, removed 5 minutes before, observed 30 minutes, FIG. 8)","itching behavioral responses (number of times) ([5]; 1 mM transdermal preparation, control 142 times, 30 minutes)"
did not effectively block TRPV1,Cc1cc2nc3c(=O)[nH]c(=O)nc-3n(C[C@H](O)[C@H](O)[C@H](O)CO)c2cc1C [riboflavin],statistically significant effect of blocking channels in a concentration-dependent manner,itching responses were reduced,blocked,dose-dependent pattern,itching responses were reduced,the current is blocked,–,–
–,"Cc1cc2nc3c(=O)[nH]c(=O)nc-3n(C[C@H](O)[C@H](O)[C@H](O)CO)c2cc1N(C)C [roseoflavin, 8-demethyl-8-(dimethylamino)-riboflavin]",–,–,–,–,–,–,itching responses were reduced,60 times
